Tests used:
[1] = Body weights in xenograft studies; format: in vivo; conditions: nude mice, xenograft models, p.o. twice daily
Method: The mice were housed and maintained under specific-pathogen free (SPF) conditions. All animal procedures were performed according to the protocol approved by the Institutional Animal Care and Use Committee at Shanghai Institute of Materia Medica, Chinese Academy of Sciences (SIMM-AE-DJ-2010-01). Under sterile conditions, well-developed tumors were cut into 1-mm^3 fragments and transplanted s.c. into the right flank of nude mice using a trocar. When the tumor reached a volume reached 100 to 200 mm^3, the mice were randomly assigned into control and treatment groups. […] The sizes of the tumors were measured twice per week using microcalipers. The tumor volume (V) was calculated as follows: V = (length×width^2)/2. The body weights of the mice were observed simultaneously.

EGFR T790M/L858R = biological target: T1, EGFR T790M/L858R (Homo sapiens, UniProt P00533, L858R/T790M); assay: In vitro tyrosine kinase assay (ELISA); format: biochemical; conditions: EGFR T790M/L858R double mutant, cell-free; means ± SD
T1 construct: purchased Cell Signaling Technology Inc
T1 sequence (P00533 25-1210 T790M/L858R): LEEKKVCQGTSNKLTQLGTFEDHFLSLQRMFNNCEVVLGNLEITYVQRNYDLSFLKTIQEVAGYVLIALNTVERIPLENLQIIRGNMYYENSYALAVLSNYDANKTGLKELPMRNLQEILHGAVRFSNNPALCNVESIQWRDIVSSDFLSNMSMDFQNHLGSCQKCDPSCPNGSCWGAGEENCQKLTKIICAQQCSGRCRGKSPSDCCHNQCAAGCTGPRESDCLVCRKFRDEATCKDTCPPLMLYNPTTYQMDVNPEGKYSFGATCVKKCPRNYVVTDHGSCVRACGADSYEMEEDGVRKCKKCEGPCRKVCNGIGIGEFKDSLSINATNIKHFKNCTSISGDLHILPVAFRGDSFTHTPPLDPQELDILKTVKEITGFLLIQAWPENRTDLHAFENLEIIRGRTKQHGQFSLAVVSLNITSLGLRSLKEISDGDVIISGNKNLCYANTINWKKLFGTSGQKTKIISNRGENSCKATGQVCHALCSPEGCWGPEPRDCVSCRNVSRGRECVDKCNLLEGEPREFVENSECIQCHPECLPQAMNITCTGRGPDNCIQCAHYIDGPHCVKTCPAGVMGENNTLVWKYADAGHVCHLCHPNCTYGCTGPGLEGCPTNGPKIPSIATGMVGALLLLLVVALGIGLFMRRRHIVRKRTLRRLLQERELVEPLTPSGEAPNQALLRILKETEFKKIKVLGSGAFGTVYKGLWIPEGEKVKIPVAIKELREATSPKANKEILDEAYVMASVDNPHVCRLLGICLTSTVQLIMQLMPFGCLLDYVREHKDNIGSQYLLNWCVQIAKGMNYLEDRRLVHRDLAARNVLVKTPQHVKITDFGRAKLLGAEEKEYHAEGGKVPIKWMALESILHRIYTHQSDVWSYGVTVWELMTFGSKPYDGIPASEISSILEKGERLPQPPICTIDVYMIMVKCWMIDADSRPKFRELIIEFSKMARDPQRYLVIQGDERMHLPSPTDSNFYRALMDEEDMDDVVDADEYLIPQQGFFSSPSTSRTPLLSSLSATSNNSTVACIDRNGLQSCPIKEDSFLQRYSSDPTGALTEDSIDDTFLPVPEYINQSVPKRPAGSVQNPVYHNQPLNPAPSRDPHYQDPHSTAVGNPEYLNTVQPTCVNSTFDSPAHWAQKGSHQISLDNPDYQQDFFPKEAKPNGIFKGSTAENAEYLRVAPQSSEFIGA
Method: (§1) The tyrosine kinase activities were determined using enzyme-linked immunosorbant assay (ELISA). The serine/threonine kinase activities were detected by Caliper Mobility Shift Assay on EZ Reader (Caliper Life Sciences, MA) according to the instruction.
The kinase domain of EGFR, ErbB-2, IGF1R, VEGFR2, FGFR1, PDGFRα, c-Src, c-Met, RON, c-Kit, EphA2 and EphB2 were expressed using the Bac-to-Bac^TM baculovirus expression system (Invitrogen, Carlsbad, CA, USA) and purified on Ni-NTA columns (QIAGEN Inc., Valencia, CA, USA). VEGFR1, PDGFRβ and c-Abl were purchased from Upstate Biotechnology Inc. (Charlottesville, Virginia, USA). […] EGF was purchased from R&D, Minneapolis, […]. Poly(Glu-Tyr)(4:1), the substrate of tyrosine kinase, was from Sigma-Aldrich Corp. St. Louis, MO, USA.
The tyrosine kinase activities were determined in 96-well ELISA plates (Corning, NY, USA) precoated with 20 μg/mL Poly (Glu,Tyr)4:1. First, 80 μL of 5 μM ATP solution diluted in kinase reaction buffer (50 mM HEPES pH 7.4, 20 mM MgCl2, 0.1 mM MnCl2, 0.2 mM Na3VO4, 1 mM DTT) was added to each well. […] Subsequently, the kinase reaction was initiated by the addition of purified tyrosine kinase proteins diluted in 10 μL of kinase reaction buffer solution. Experiments at each concentration were performed in duplicate. […]

ErbB4 = ErbB4 (Homo sapiens, UniProt Q15303); conditions: ErbB4, cell-free; means ± SD
Chain of ErbB4 (Q15303 26-1308, species assumed): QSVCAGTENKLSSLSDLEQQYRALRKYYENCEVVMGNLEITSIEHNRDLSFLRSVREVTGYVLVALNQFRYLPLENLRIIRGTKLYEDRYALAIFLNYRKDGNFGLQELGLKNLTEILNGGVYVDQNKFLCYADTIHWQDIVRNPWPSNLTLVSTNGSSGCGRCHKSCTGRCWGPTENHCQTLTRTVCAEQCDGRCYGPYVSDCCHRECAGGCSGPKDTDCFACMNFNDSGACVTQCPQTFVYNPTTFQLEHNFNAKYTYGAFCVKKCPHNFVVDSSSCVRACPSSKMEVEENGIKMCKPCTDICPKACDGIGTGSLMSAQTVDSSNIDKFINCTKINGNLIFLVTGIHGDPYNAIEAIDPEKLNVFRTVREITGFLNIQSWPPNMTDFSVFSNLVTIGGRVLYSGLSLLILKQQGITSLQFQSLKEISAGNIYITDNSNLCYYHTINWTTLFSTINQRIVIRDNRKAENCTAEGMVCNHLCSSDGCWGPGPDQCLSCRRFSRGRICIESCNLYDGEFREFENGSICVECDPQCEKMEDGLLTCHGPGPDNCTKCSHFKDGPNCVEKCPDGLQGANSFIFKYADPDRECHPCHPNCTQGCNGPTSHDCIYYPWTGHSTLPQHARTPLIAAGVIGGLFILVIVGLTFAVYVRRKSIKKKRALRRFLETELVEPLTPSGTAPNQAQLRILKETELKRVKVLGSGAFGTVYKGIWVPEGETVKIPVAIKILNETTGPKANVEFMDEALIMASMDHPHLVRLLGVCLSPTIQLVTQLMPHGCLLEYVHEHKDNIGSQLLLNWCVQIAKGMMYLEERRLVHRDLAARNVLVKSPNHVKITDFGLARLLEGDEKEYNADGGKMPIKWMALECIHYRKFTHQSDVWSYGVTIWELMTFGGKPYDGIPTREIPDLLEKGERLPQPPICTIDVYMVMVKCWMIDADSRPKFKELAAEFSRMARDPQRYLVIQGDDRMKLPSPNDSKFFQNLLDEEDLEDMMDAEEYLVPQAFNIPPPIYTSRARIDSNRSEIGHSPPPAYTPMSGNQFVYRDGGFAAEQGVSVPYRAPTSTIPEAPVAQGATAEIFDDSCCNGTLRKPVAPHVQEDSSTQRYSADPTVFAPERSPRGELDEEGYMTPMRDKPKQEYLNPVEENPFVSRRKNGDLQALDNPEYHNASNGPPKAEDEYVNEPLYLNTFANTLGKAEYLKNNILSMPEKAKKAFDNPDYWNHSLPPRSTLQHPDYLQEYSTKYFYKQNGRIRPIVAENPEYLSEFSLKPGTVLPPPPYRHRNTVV
Method: as §1
The tyrosine kinase activities were determined in 96-well ELISA plates (Corning, NY, USA) precoated with 20 μg/mL Poly (Glu,Tyr)4:1. First, 80 μL of 5 μM ATP solution diluted in kinase reaction buffer (50 mM HEPES pH 7.4, 20 mM MgCl2, 0.1 mM MnCl2, 0.2 mM Na3VO4, 1 mM DTT) was added to each well. […] Subsequently, the kinase reaction was initiated by the addition of purified tyrosine kinase proteins diluted in 10 μL of kinase reaction buffer solution. Experiments at each concentration were performed in duplicate. After incubation for 60 min at 37 °C, the plate was washed three times with phosphate buffered saline (PBS) containing 0.1% Tween 20 (T-PBS). Next, 100 μL anti-phosphotyrosine antibody (PY99, 1:500 dilution) diluted in T-PBS containing 5 mg/mL BSA was added. After 30 min incubation at 37 °C, the plate was washed three times as before. Horseradish peroxidase-conjugated goat anti-mouse IgG (100 μL) diluted 1:2000 in T-PBS containing 5 mg/ml BSA was added. The plate was reincubated at 37 °C for 30 min, and then washed with PBS.

[2] = system: EGFR phosphorylation in A549 cells; assay: Western blot of EGF-induced EGFR phosphorylation; format: cell-based, human; conditions: 0.01 µM, 4 h, EGF 50 ng/ml 15 min

## C=CC(=O)Nc1ccc2ncnc(Nc3ccc(OCc4cccc(F)c4)c(Cl)c3)c2c1 [AST1306]
[1]
  body weights during treatment: no obvious differences
EGFR T790M/L858R
  IC50: 12 ± 2 nM
ErbB4
  IC50: 0.8 ± 0.3 nM
[2]
  EGF-induced EGFR phosphorylation (phospho-EGFR bands): almost disappeared

— article PMC3138742 (PLoS ONE, 2011)
